row,SMILES,melting point
1,CCC(=O)Nc1c(C(=O)Cc2c(C)cc(C)cc2C)oc2ccccc12,147 to 148 °C
2,N#Cc1c(Cl)c(Cl)nc(Cl)c1Cl,139 to 142 °C
3,Cc1nn(C)c(C)c1C(=O)O,218 to 219 °C
4,CNC(=S)Nc1cc(OC)c(OC)cc1C(c1ccc(C)o1)c1ccc(C)o1,165 °C
5,Cc1ccc(-c2csc(/C(C#N)=N\Nc3cccc([N+](=O)[O-])c3)n2)cc1,225 °C
6,O=C(O)CCn1cncn1,177 to 179 °C
7,O=C(COc1ccc(Cl)cc1)Nc1nc2ccccc2s1,139 °C
8,CN(C)c1ccc(N)cc1,53 °C
9,Cn1c(=O)c(C2=NNC(=O)C2=CNc2cccc3ccccc23)c(O)c2ccccc21,292 °C
10,S=c1[nH]ccn1-c1ccc(Br)cc1,244 to 246 °C
11,CCCc1cc(C(C)=O)c(O)cc1O,99 to 101 °C
12,Cc1ccc(C)c(C=Cc2ccc(-c3ccc(C=Cc4cc(C)ccc4C)cc3)cc2)c1,198 °C
13,OCCN(CCO)Cc1ccc(COc2ccccc2)cc1,88 °C
14,NN=C1c2ccccc2C(=O)C1C(=O)C(c1ccccc1)c1ccccc1 (stereo unspecified),241 to 243 °C
15,C=CCNC(=O)NCC=C,91.5 °C
16,C#CC(O)CCCCC (stereo unspecified),-60 °C
17,CCOC(=O)C1=C(C)NC(=O)NC1C (stereo unspecified),189 to 190 °C
18,Cc1cccc(C)c1N(Cn1cccn1)C(=O)CCl,85 °C
19,CC1CC(C)(C)CC1=O (stereo unspecified),-25.6 °C
20,CC(C)(C)OC(=O)N1CCN(c2ccc(I)cn2)CC1,102 to 105 °C
21,NC(=O)C=CC(N)=O,276 °C
22,c1ccc(-c2ccc3cc4ccc(-c5ccccc5)nc4cc3n2)cc1,279 °C
23,Cc1cc(C)cc(CC(=O)O)c1,101 °C
24,O=C(CCl)c1ccc(Cl)c(Cl)c1,44 °C

row,SMILES,melting point
1,FC(F)CC(F)(F)F,-102 °C
2,CN(C)C(=O)C(C(F)(F)F)C(F)(F)F,54 °C
3,CCCCCCCCCCCC(=O)CC,34 °C
4,C#CCl,-126 °C
5,CCCCC(C)CC (stereo unspecified),-100 °C
6,N#Cc1c(F)cc(Br)cc1F,81 °C
7,CC(=O)c1cc(C)cc([N+](=O)[O-])c1O,135 °C
8,COc1ccc([C@@H](O)[C@@H](CO)Oc2c(OC)cccc2OC)cc1OC,111 °C
9,CC(=O)c1ccc(OCc2ccc(F)cc2)cc1,79 to 80 °C
10,Clc1ccc(NC2=NCCN2)cc1,147 to 148 °C
11,Cc1ncsc1C(=O)O,254 to 255 °C
12,CC(C)NCCCC1(C(N)=O)c2ccccc2-c2ccccc21,94.5 °C
13,CC(C)(C)CC(C)(C)S,-74 °C
14,OCC(CO)(CO)COCC(CO)(CO)COCC(CO)(CO)CO,249 °C
15,C=Cc1scnc1C,-15 °C
16,CCC(=O)OC1CCC2(C)C(=CCC3C2CCC2(C)C(C(C)CCCC(C)C)CCC32)C1 (stereo unspecified),97 to 100 °C
17,Cc1cc(N)ccc1N,64 °C
18,CC(C(O)c1ccccc1)N(C)CC=Cc1ccccc1 (stereo unspecified),75 °C
19,O=C(OCCc1ccc(CCOC(=O)c2ccccc2)cc1)c1ccccc1,137 °C
20,Cc1c(Cl)ccc(O)c1Cl,58 °C
21,Cc1nn(C)c(C)c1C=O,81.5 °C
22,COc1cc2cc(c1Cl)N(C)C(=O)CC(OC(=O)C(C)N(C)C(C)=O)C1(C)OC1C(C)C1CC(O)(NC(=O)O1)C(OC)C=CC=C(C)C2 (stereo unspecified),172 °C
23,CC(C)(Br)C(=O)NC12CC3CC(CC(C3)C1)C2,114 to 115 °C
24,CC1(C)OC(C)(C(C)(C)O)CCC1C(=O)O (stereo unspecified),111 °C

row,SMILES,melting point
1,Cc1n[nH]c2c(=O)n(C(C)C)c(C)nc12,143 to 145 °C
2,O=C(OCc1ccc(Cl)cc1)c1cnc(Cl)nc1C(F)(F)F,69 to 71 °C
3,O=C(C=Nc1ccccc1)c1ccc(C(=O)C=Nc2ccccc2)cc1,155 °C
4,CCCNCCC,-63 °C
5,CCCCCCC(C)CCCCCC,-37.2 °C
6,O=C(N=c1sc(C(=O)c2cccs2)nn1-c1ccccc1[N+](=O)[O-])c1ccccc1,239 °C
7,CCOC(=O)c1c(C)c(C(C)=O)c(C)n1C,61 to 62 °C
8,COC(=O)CCCCCC(=O)OC,-21 °C
9,O=C(O)COc1ccc([N+](=O)[O-])cc1,182 to 188 °C
10,Oc1c2cccc1Cc1cccc(c1O)Cc1cccc(c1O)Cc1cccc(c1O)C2,317 °C
11,Clc1cc2c(cc1Cl)Oc1c(Cl)c(Cl)cc(Cl)c1O2,206 °C
12,CN(CC=CC#CC(C)(C)C)Cc1cccc2ccccc12,196 °C
13,O=[N+]([O-])c1ccc(-c2nnc3sc(/C=C/c4ccccc4)nn23)cc1,112 to 114 °C
14,CC(C)C(C)C(C)(C)C (stereo unspecified),-121 °C
15,COc1cc(C)c(C=O)c(OC)c1,65 °C
16,ClCc1nc(-c2cccs2)no1,59 to 60 °C
17,O=C(CBr)c1cccc(Br)c1,51 to 52 °C
18,O=C(NCCCBr)c1cc([N+](=O)[O-])cc([N+](=O)[O-])c1,195 °C
19,O=C1NC(=O)C(=NNc2ccc(Cl)cc2)C(=O)N1,353 °C
20,CCc1ccc(CCl)cc1,-21 °C
21,S=C(Nc1cccc2ccccc12)Nc1cccc2ccccc12,208 °C
22,ICCCI,-20 °C

# The next lines start with the values.
row,melting point,SMILES
1,147 °C,CC1CCC(C)(C(=O)CN(C)C(=S)Nc2ccccc2)C1(C)C (stereo unspecified)
2,251 to 254 °C,O=c1c(N2CCCC2)c(N2CCOCC2)c1=O
3,198 °C,CC(C)S(=O)(=O)n1c(N)nc2ccc(C(=NO)c3ccccc3)cc21
4,99 °C,O=C(C1=NOC2C(=O)N(c3ccc(O)cc3)C(=O)C12)c1ccccc1 (stereo unspecified)
5,95 to 96 °C,O=Cc1ccc(OC2CCOCC2)cc1
6,96 to 97 °C,Cn1nc(-c2cccs2)cc1CCl
7,111 °C,O=C1C(Br)=C(c2ccccc2)c2ccccc21
8,240 °C,Nc1c(O)cccc1C(=O)O
9,71 °C,N#Cc1ccc(Br)cc1F
10,84 to 87 °C,CCc1ccc(C(=O)NN)cc1
11,240 to 244 °C,O=C(O)c1ccc(-c2cccs2)cc1
12,240 °C,Cc1ccc2c(c1)C(=O)c1ccc(C)cc1C2=O
13,52 °C,CC(C)c1ccc(CC(=O)O)cc1
14,70 °C,COC(=O)c1ccc(=O)oc1
15,78 °C,c1ccc(-c2cccc(-c3ccccc3)n2)cc1
16,85 to 86 °C,Cc1nc(-c2ccccc2)ncc1CO
17,235 °C,O=C1C(=Cc2ccccc2)N=C(N2CCOCC2)N1c1ccccc1
18,202 to 207 °C,c1ccc2cc3c(cc2c1)oc1ccccc13
19,133 to 135 °C,O=C(OC1OC(=O)c2ccccc21)c1ccccc1 (stereo unspecified)
20,269 °C,CC1COc2c(C3(N)CC3)c(F)cc3c(=O)c(C(=O)O)cn1c23 (stereo unspecified)
21,227 to 229 °C,O=C(O)c1ccc(Cn2cncn2)cc1

row,melting point,SMILES
1,253 to 257 °C,N#Cc1cc2ccccc2cc1C#N
2,167 to 169 °C,Cn1ccc2cc([N+](=O)[O-])ccc21
3,115 °C,Cc1nc(-c2ccc(C=O)cc2)no1
4,183 °C,O=[N+]([O-])c1cccc(-c2nnc3n2CN(c2ccccc2[N+](=O)[O-])CS3)c1
5,177 °C,c1cnc2ccc3ncccc3c2c1
6,112 to 113 °C,CC(NC(=O)OCc1ccccc1)C(=O)O (racemic)
7,133 °C,Cc1nc2cc([N+](=O)[O-])ccc2s1
8,32 °C,O=C(Cl)c1ccc(Cl)c(Cl)c1
9,117 to 118 °C,COC(=O)c1sccc1-c1ccc(C=O)o1
10,120 °C,CCN1CCc2c3n(c4ccccc24)C(C(=O)OC)=CCC31 (stereo unspecified)
11,156 to 158 °C,Cc1cc(S(=O)(=O)Cc2ccc(N)cc2)c(C)cc1Cl
12,178 °C,CN1CCCN=C1C=Cc1cccs1
13,44 °C,Fc1cccc(C(F)(F)F)c1CBr
14,228 to 232 °C,O=c1[nH]c2ccc(Br)cc2s1
15,300 °C,N[C@H](C(=O)O)c1ccc(F)cc1
16,63 to 65 °C,O=Cc1cccc(N2CCCC2)n1
17,85 to 87 °C,CCCC(=O)c1ccc(NC(C)=O)cc1O
18,18 to 20 °C,O=C(Cl)c1cccc(S(=O)(=O)Cl)c1
19,134 to 136 °C,ON=C(c1cccs1)c1cccs1
20,186 °C,O=c1ccn(C2CC(F)C(CO)O2)c(=O)[nH]1 (stereo unspecified)
21,164 °C,O=C(O)c1c(Cl)cccc1[N+](=O)[O-]

row,melting point,SMILES
1,234 °C,Cc1ccnc(NS(=O)(=O)c2ccc(N)cc2)n1
2,112 to 114 °C,COc1ccc(OCC(=O)O)cc1
3,226 °C,N=C(N)NC(=O)Cc1c(Cl)cccc1Cl
4,233 °C,Nc1ncnc(Nc2ccc(Cl)cc2)n1
5,157 °C,CC(c1cc2ccccc2s1)N(O)C(N)=O (stereo unspecified)
6,172 °C,CC(C)Oc1ccc(C(=O)NS(=O)(=O)c2ccc(N)cc2)cc1
7,199 to 201 °C,CN1N=C2c3ccccc3CCC2C1c1ccc(Cl)cc1 (stereo unspecified)
8,175 to 177 °C,NC(=S)Nc1ccc(Oc2ccccc2)cc1
9,77 to 78 °C,Cc1ccc(S(=O)(=O)CCCl)cc1
10,40 °C,O=C(NCc1ccccc1)OCCO
11,275 to 278 °C,O=c1[nH]c(=O)n(CCO)c2c1CCCC2
12,134 to 136 °C,O=C1CCCN1c1ccc(C(F)(F)F)cc1
13,140 to 143 °C,O=C(O)c1coc2c1C(=O)CCC2
14,133 °C,CCOc1ccccc1C(N)=O
15,112 to 114 °C,Fc1ccccc1-c1ccccc1F
16,75 to 76 °C,Nc1cccc(C2OCCCO2)c1
17,94 °C,O=C(CCCl)NCc1ccccc1
18,158 °C,Cc1ccccc1N1CCN(CCc2nnc3n2CCCC3)CC1
19,242 °C,CC(=O)N1N=C(c2ccc3ccccc3c2)C[C@@H]1c1ccc(Cl)c(Cl)c1
